This test has as its system LNCaP-wt xenografts. In words: Photoacoustic imaging of tumor vascularization and oxygenation. It counts as in vivo, male athymic, nude mice. Particulars: 0.4 mM, 100 μL retro-orbital injection daily. How it is done: Male, athymic, nude mice (Harlan Laboratories, Indianapolis, Ind.) were implanted with LNCaP xenografts (3 million cells in 100 μL Matrigel). Immediately post xengraft implantation, the mice were treated daily iv with 2-PMPA (0.4 mM, 100 μL retro-orbital injection). Tumor vascularization and oxygenation was assessed 15 days after treatment commencements, using the Vevo LAZR small-animal photoacoustic imaging platform (Visualsonics, Toronto, ON, Canada).
The tumors used in the study had roughly the same size. […] (FIG. 6 a-b). […] (FIG. 6c)

Turning to `O=C(O)CCC(CP(=O)(O)O)C(=O)O` (stereo not shown) [2-PMPA], the “tumor total hemoglobin levels” value (FIG. 6a-b) was “lower total hemoglobin levels”. Besides, the “tumor consumption of oxygen” value (FIG. 6c) is “lower consumption of oxygen”. Further, the tumor oxygenation entry (versus saline) is listed as “lower tumor oxygenation”. Besides, the tumor vascularization result (versus saline, FIG. 6a-b) is given as “lower tumor vascularization”.

The values above are taken from patent US20170252433A1, “PSMA-RELATED THERAPIES” (Memorial Sloan Kettering Cancer Center, priority 2014, published 2017).
